{"source": "patent US20220176011A1", "about": "“SCAR REDUCING WOUND CLOSURE MATERIALS” (Lankenau Institute for Medical Research, priority 2019, published 2022)", "tested_on": "HIF1a protein activity", "test": "In vitro drug release from suture into DMEM medium, read out by HIF1a luciferase assay", "format": "cell-based", "method": "FIG. 1 is a graph plotting drug release in vitro from poly(lactic acid)/poly(lactic-co-glycolic acid (PLA/PLGA) sutures over time. Briefly, a mixture of PLA and PLA/GPLA suture was infused with 1,4-DPCA molecules during generation of the sutures. The concentration of DPCA was in all cases 5 mg/100 mg suture material as described below. The sutures, having different ratios of PLA and PLA/PLGA as described below, were tested for rate of drug release. Drug release was measured by HIF levels. The sutures were soaked in medium without serum for 24 hours and transferred to new medium for each timepoint identified on the graph. The medium was tested for HIF1a protein activity in a luciferase assay. The horizontal lines are controls as noted: at about 10000 luminescence units (LU) is a control for DMEM only; at about 18000 LU is a control for 25 μM DCPA; at about 29500 LU is a control for 50 μM DCPA; at about 39000 LU is a control for 100 μM DCPA; and at about 40500 LU is a control for 200 μM DCPA. The curve that is substantially at 10000 LU but dips below at day 12 represents a mixture of PLA and PLA/PLGA [50:50] at a ratio of 75 PLA:25 PLA/PLGA. The curve that starts below 10000 LU and increases to about 15000 LU at day 14.5 is PLA and PLA/PLGA [50:50] at a ratio of 75:25+DPCA. The curve that starts above 50000 and has a peak at day 15 above 40000 LU is PLA and PLA/PLGA[50:50] at a ratio of 50:50+DPCA. The curve that starts above 50000 LU and has a peak at day 7.5 at about 34000 LU represents PLA and PLA/PLGA [50:50] at a ratio of 75:25+DPCA.\nA PLA/PGLA suture, infused with 1,4-DPCA molecules during generation of the sutures as described in Example 1 (i.e., materials are melted, DPCA added, and the final mixture cooled and pulled into sutures), was tested for rate of release of 1,4-DPCA into DMEM medium. Drug release was measured by HIF levels. The sutures were soaked in medium without serum for 24 hours and transferred to new medium for each timepoint (1 hour, 3 hours, Days 1, 2, 3, 6, 7, 8, 9, 10, 13, 14, 15, 16, 17 and 20). The medium was tested for HIF1a protein activity in a luciferase assay (Signosis, Inc) as described in ESKLA, K-L et al, Hypothermia augments stress response in mammalian cells. Free Radical Biology and Medicine, 2018 doi:10.1016/j.freeradbiomed.2018.04.571.\nThe results are shown in the graph at FIG. 1. The two heavy lines represented PLA/PLGA[50:50] 50:50+DPCA and PLA/PLGA[50:50] 75:25+DPCA are shown releasing the drug after one hour in the medium up to about 15 days in the medium after which the drug detection falls under the DMEM control."}
{"smiles": "O=C(O)c1c[nH]c2c(ccc3cccnc32)c1=O", "note": "[DCPA, 1,4-dihydrophenonthrolin-4-one-3-carboxylic acid]", "values": [{"measurement": "luminescence (HIF1a luciferase assay), control line", "setting": "25 μM free drug control", "value": "about 18000 LU"}, {"measurement": "luminescence (HIF1a luciferase assay), control line", "setting": "50 μM free drug control", "value": "about 29500 LU"}, {"measurement": "luminescence (HIF1a luciferase assay), control line", "setting": "100 μM free drug control", "value": "about 39000 LU"}, {"measurement": "luminescence (HIF1a luciferase assay), control line", "setting": "200 μM free drug control", "value": "about 40500 LU"}]}
